Measurements as given in ChEMBL document CHEMBL3877274, “Preparation of novel ring-A fused azole derivatives of betulin and evaluation of their cytotoxicity” (Eur J Med Chem, 2017).
pIC50: −log10 of the molar value. The source made the active and inactive calls. The rule behind the calls is not given here.

Key:
[1] = Cytotoxicity against human A549 cells measured after 72 hrs by MTT assay; assay type: functional, cell-based; settings: A549, 72 h
[2] = Cytotoxicity against human MS cells measured after 72 hrs by MTT assay; assay type: functional, cell-based
[3] = Cytotoxicity against human Hep2 cells measured after 72 hrs by MTT assay; assay type: functional, cell-based; settings: HEp-2, 72 h
[4] = Cytotoxicity against human HCT116 cells measured after 72 hrs by MTT assay; assay type: functional, cell-based; settings: HCT-116, 72 h
[5] = Cytotoxicity against human TE32 cells measured after 72 hrs by MTT assay; assay type: functional, cell-based; settings: RD
[6] = Cytotoxicity against human HEK293 cells measured after 72 hrs by MTT assay; assay type: toxicity, cell-based
HCT-116 [7] = assay: Induction of apoptosis in human HCT116 cells assessed as mitochondrial membrane permeability loss by measuring rhodamine 123 accumulation at 6.7 uM measured after 18 hrs by fluorescence inverted microscopic analysis; assay type: functional, cell-based
HCT-116 [8] = assay: Induction of apoptosis in human HCT116 cells assessed as chromatin condensation at 6.7 uM measured after 18 hrs by Hoechst 33258 staining based fluorescence inverted microscopic analysis; assay type: functional, cell-based
HCT-116 [9] = assay: Induction of apoptosis in human HCT116 cells assessed as viable cells at 6.7 uM measured after 18 hrs by Annexin-V FITC/propidium iodide staining based flow cytometry (reference value: 92.83%); assay type: functional; settings: HCT-116, 18 h, read-out: Activity
HCT-116 [10] = assay: Induction of apoptosis in human HCT116 cells assessed as early apoptotic cells at 6.7 uM measured after 18 hrs by Annexin-V FITC/propidium iodide staining based flow cytometry (reference value: 3.92%); assay type: functional
HCT-116 [11] = assay: Induction of apoptosis in human HCT116 cells assessed as late apoptotic cells at 6.7 uM measured after 18 hrs by Annexin-V FITC/propidium iodide staining based flow cytometry (reference value: 1.13%); assay type: functional
HCT-116 [12] = assay: Induction of apoptosis in human HCT116 cells assessed as necrotic cells at 6.7 uM measured after 18 hrs by Annexin-V FITC/propidium iodide staining based flow cytometry (reference value: 2.12%); assay type: functional
HCT-116 [13] = assay: Induction of apoptosis in human HCT116 cells assessed as appearance of half moon or crescent shape nuclei at 6.7 uM measured after 18 hrs by Hoechst 33258 staining based fluorescence inverted microscopic analysis; assay type: functional, cell-based
HCT-116 [14] = assay: Induction of apoptosis in human HCT116 cells assessed as nuclear fragmentation at 6.7 uM measured after 18 hrs by Hoechst 33258 staining based fluorescence inverted microscopic analysis; assay type: functional, cell-based
HCT-116 [15] = assay: Induction of apoptosis in human HCT116 cells assessed as formation of apoptotic bodies at 6.7 uM measured after 18 hrs by Hoechst 33258 staining based fluorescence inverted microscopic analysis; assay type: functional, cell-based
[16] = Toxicity in po or ip dosed mouse administered as single dose measured after 14 days; assay type: organism-based; settings: in vivo
HCT-116 [17] = assay: Cytotoxicity against human HCT116 cells at 5.7 uM by MTT assay; assay type: functional, cell-based; settings: TDE = time-dependent effect
HCT-116 [18] = assay: Induction of apoptosis in human HCT116 cells assessed as mitochondrial membrane permeability loss by measuring rhodamine 123 accumulation at 5.7 uM measured after 18 hrs by fluorescence inverted microscopic analysis; assay type: functional, cell-based
HCT-116 [19] = assay: Induction of apoptosis in human HCT116 cells assessed as chromatin condensation at 5.7 uM measured after 18 hrs by Hoechst 33258 staining based fluorescence inverted microscopic analysis; assay type: functional, cell-based
HCT-116 [20] = assay: Induction of apoptosis in human HCT116 cells assessed as viable cells at 5.7 uM measured after 18 hrs by Annexin-V FITC/propidium iodide staining based flow cytometry (reference value: 92.83%); assay type: functional; settings: HCT-116, 18 h, read-out: Activity
HCT-116 [21] = assay: Induction of apoptosis in human HCT116 cells assessed as early apoptotic cells at 5.7 uM measured after 18 hrs by Annexin-V FITC/propidium iodide staining based flow cytometry (reference value: 3.92%); assay type: functional
HCT-116 [22] = assay: Induction of apoptosis in human HCT116 cells assessed as late apoptotic cells at 5.7 uM measured after 18 hrs by Annexin-V FITC/propidium iodide staining based flow cytometry (reference value: 1.13%); assay type: functional
HCT-116 [23] = assay: Induction of apoptosis in human HCT116 cells assessed as necrotic cells at 5.7 uM measured after 18 hrs by Annexin-V FITC/propidium iodide staining based flow cytometry (reference value: 2.12%); assay type: functional
HCT-116 [24] = assay: Induction of apoptosis in human HCT116 cells assessed as increase in caspase-8 activity at 5.7 uM measured up to 24 hrs; assay type: functional, cell-based
HCT-116 [25] = assay: Induction of apoptosis in human HCT116 cells assessed as increase in caspase-3/7 activity at 5.7 uM measured up to 24 hrs; assay type: functional, cell-based
HCT-116 [26] = assay: Induction of apoptosis in human HCT116 cells assessed as increase in cck18 level at 5.7 uM measured after 18 hrs; assay type: functional, cell-based
HCT-116 [27] = assay: Induction of apoptosis in human HCT116 cells assessed as appearance of half moon or crescent shape nuclei at 5.7 uM measured after 18 hrs by Hoechst 33258 staining based fluorescence inverted microscopic analysis; assay type: functional, cell-based
HCT-116 [28] = assay: Induction of apoptosis in human HCT116 cells assessed as nuclear fragmentation at 5.7 uM measured after 18 hrs by Hoechst 33258 staining based fluorescence inverted microscopic analysis; assay type: functional, cell-based
HCT-116 [29] = assay: Induction of apoptosis in human HCT116 cells assessed as formation of apoptotic bodies at 5.7 uM measured after 18 hrs by Hoechst 33258 staining based fluorescence inverted microscopic analysis; assay type: functional, cell-based

Row | SMILES | pIC50 [1] | pIC50 [2] | pIC50 [3] | pIC50 [4] | pIC50 [5] | further results
1 | C=C(C)[C@@H]1CC[C@]2(CO)CC[C@]3(C)[C@H](CC[C@@H]4[C@@]5(C)C/C(=N\O)C(=O)C(C)(C)[C@@H]5CC[C@]43C)[C@@H]12 | 4.32 | 4.56 | < 4.00 | 5.55 | 4.45 | –
2 | C=C(C)[C@@H]1CC[C@]2(CO)CC[C@]3(C)[C@H](CC[C@@H]4[C@@]5(C)c6c(noc6C)C(=O)C(C)(C)[C@@H]5CC[C@]43C)[C@@H]12 | < 4.00 | 4.61 | 4.51 | 4.53 | < 4.00 | –
3 | C=C(C)[C@@H]1CC[C@]2(COC(C)=O)CC[C@]3(C)[C@H](CC[C@@H]4[C@@]5(C)Cc6nn(C(C)=O)nc6C(C)(C)[C@@H]5CC[C@]43C)[C@@H]12 | < 4.00 | < 4.00 | 4.75 | 4.65 | < 4.00 | –
4 | C=C(C)[C@@H]1CC[C@]2(CO)CC[C@]3(C)[C@H](CC[C@@H]4[C@@]5(C)C(=O)c6nc(C)oc6C(C)(C)[C@@H]5CC[C@]43C)[C@@H]12 | 4.36 | 4.57 | 4.71 | 4.80 | < 4.00 | –
5 | C=C(C)[C@@H]1CC[C@]2(C=O)CC[C@]3(C)[C@H](CC[C@@H]4[C@@]5(C)Cc6nn(C(C)=O)nc6C(C)(C)[C@@H]5CC[C@]43C)[C@@H]12 | 4.27 | < 4.00 | < 4.00 | < 4.00 | 4.34 | –
6 | CC[C@@]1(O)C(=O)OCc2c1cc1n(c2=O)Cc2cc3ccccc3nc2-1 [CAMPTOTHECIN] | 5.23 | 5.74 | 5.52 | 5.17 | 5.91 | IC50 at 72 h [6]: 890 nM; Activity (HCT-116 [7]): Active; Activity (HCT-116 [8]): Active; viability at 6.7 µM (HCT-116 [9]): 80.9%; Activity (HCT-116 [10]): 12.44%; Activity (HCT-116 [11]): 1.6%; Activity (HCT-116 [12]): 5.07%; Activity (HCT-116 [13]): Active; Activity (HCT-116 [14]): Active; Activity (HCT-116 [15]): Active
7 | C=C(C)[C@@H]1CC[C@]2(COC(C)=O)CC[C@]3(C)[C@H](CC[C@@H]4[C@@]5(C)C(=O)c6nc(C)oc6C(C)(C)[C@@H]5CC[C@]43C)[C@@H]12 | 4.62 | 4.32 | 4.40 | 4.48 | 4.65 | –
8 | C=C(C)[C@@H]1CC[C@]2(COC(C)=O)CC[C@]3(C)[C@H](CC[C@@H]4[C@@]5(C)C=C(NC(C)=O)C(=O)C(C)(C)[C@@H]5CC[C@]43C)[C@@H]12 | 4.43 | < 4.00 | 4.66 | 4.08 | 4.47 | –
9 | C=C(C)[C@@H]1CC[C@]2(CO)CC[C@]3(C)[C@H](CC[C@@H]4[C@@]5(C)C=C(NC(C)=O)C(=O)C(C)(C)[C@@H]5CC[C@]43C)[C@@H]12 | < 4.00 | < 4.00 | 4.98 | 5.29 | < 4.00 | –
10 | C=C(C)[C@@H]1CC[C@]2(CO)CC[C@]3(C)[C@H](CC[C@@H]4[C@@]5(C)Cc6nn(C(C)=O)nc6C(C)(C)[C@@H]5CC[C@]43C)[C@@H]12 | 4.68 | 5.64 | 5.13 | 5.25 | 5.35 | IC50 at 72 h [6]: 12700 nM; LD50 at 336 h [16]: > 600 mg/kg; Activity (HCT-116 [17]): Tde; Activity (HCT-116 [18]): Active; Activity (HCT-116 [19]): Active; viability at 5.7 µM (HCT-116 [20]): 80.9%; Activity (HCT-116 [21]): 14.87%; Activity (HCT-116 [22]): 1.04%; Activity (HCT-116 [23]): 3.14%; Activity (HCT-116 [24]): Active; Activity (HCT-116 [25]): Active; Activity (HCT-116 [26]): Active; Activity (HCT-116 [27]): Active; Activity (HCT-116 [28]): Active; Activity (HCT-116 [29]): Active
11 | C=C(C)[C@@H]1CC[C@]2(CO)CC[C@]3(C)[C@H](CC[C@@H]4[C@@]5(C)CCC(=O)C(C)(C)[C@@H]5CC[C@]43C)[C@@H]12 [BETULONE] | 4.48 | 4.74 | 4.65 | 4.47 | 4.88 | –
12 | C=C(C)[C@@H]1CC[C@]2(COC(C)=O)CC[C@]3(C)[C@H](CC[C@@H]4[C@@]5(C)c6c(noc6C)C(=O)C(C)(C)[C@@H]5CC[C@]43C)[C@@H]12 | 5.11 | 4.85 | 4.66 | 4.72 | 4.83 | –
13 | C=C(C)[C@@H]1CC[C@]2(C(=O)O)CC[C@]3(C)[C@H](CC[C@@H]4[C@@]5(C)Cc6c(nnc(C)[n+]6[O-])C(C)(C)[C@@H]5CC[C@]43C)[C@@H]12 | < 4.00 | < 4.00 | 5.82 | 5.85 | < 4.00 | IC50 at 72 h [6]: 2100 nM
14 | C=C(C)[C@@H]1CC[C@]2(CO)CC[C@]3(C)[C@H](CC[C@@H]4[C@@]5(C)Cc6c(nnc(C)[n+]6[O-])C(C)(C)[C@@H]5CC[C@]43C)[C@@H]12 | < 4.00 | 4.79 | 5.35 | 4.84 | < 4.00 | –
